# Non-standard residues stand in square brackets, D forms with d. Residues, ends and D or L forms follow the SMILES beside them. ξ: configuration not given here. *: point of attachment. ξF = NC(Cc1ccccc1)C(=O)O; Cbz = O=C(OCc1ccccc1)*
# Molecular target: T1, Solute carrier family 12 member 5 (Homo sapiens, UniProt Q9H2X9)
# T1 sequence (Q9H2X9 whole entry): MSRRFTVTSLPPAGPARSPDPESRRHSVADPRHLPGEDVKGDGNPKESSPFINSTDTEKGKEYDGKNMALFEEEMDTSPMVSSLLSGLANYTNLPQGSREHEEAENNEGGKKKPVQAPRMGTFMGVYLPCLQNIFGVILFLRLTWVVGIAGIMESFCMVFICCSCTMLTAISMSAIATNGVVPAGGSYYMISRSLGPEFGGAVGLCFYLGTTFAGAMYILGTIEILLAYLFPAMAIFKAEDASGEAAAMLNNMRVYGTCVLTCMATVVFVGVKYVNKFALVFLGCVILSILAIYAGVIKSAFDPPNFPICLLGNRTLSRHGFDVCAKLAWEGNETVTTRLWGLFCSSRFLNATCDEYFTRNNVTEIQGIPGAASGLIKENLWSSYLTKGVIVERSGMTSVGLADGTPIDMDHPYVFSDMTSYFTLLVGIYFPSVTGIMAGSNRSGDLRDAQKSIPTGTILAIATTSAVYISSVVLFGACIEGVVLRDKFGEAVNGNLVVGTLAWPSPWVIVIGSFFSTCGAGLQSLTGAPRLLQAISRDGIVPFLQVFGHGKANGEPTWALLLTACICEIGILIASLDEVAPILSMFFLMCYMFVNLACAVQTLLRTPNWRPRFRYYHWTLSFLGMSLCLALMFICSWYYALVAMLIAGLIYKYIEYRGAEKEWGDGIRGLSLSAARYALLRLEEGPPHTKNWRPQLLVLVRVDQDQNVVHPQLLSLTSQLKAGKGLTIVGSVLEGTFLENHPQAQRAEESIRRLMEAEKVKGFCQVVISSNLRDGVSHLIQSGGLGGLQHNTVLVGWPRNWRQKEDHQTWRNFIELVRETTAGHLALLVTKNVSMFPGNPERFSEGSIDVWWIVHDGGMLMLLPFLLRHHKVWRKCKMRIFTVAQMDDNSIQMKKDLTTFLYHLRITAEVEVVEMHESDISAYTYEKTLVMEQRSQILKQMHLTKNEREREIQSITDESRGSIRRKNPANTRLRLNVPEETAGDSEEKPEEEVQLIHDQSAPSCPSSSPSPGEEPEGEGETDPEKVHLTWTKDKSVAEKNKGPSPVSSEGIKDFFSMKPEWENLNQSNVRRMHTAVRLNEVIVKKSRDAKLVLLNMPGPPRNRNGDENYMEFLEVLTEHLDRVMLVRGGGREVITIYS
# Experiment: concentration-response of KCC2 transport modulators – cell-based, HEK293 KCC2, FluoZin-2 fluorescence, dose response (AID 1736)
# Details: not given
row,EC50,Structure (SMILES)
1,3.78 µM,CC1CCCCN1C(=O)CSc1ccc(-c2ccc(F)cc2)nn1 (stereo not drawn) [2-[6-(4-Fluoro-phenyl)-pyridazin-3-ylsulfanyl]-1-(2-methyl-piperidin-1-yl)-ethanone]
2,4.35 µM,CC1CCN(C(=O)CSc2ccc(-c3ccc(F)cc3)nn2)CC1 [2-[6-(4-Fluoro-phenyl)-pyridazin-3-ylsulfanyl]-1-(4-methyl-piperidin-1-yl)-ethanone]
3,4.55 µM,Cc1ccc(NC(=O)CSc2ccc(-c3ccco3)nn2)cc1 [2-[6-(furan-2-yl)pyridazin-3-yl]sulfanyl-N-(4-methylphenyl)acetamide]
4,7.75 µM,"CCC(Cc1ccccc1)NC(=O)CN(C)S(=O)(=O)c1ccc2c(c1)c(=O)n(C)c(=O)n2C (stereo not drawn) [2-[(1,3-dimethyl-2,4-dioxo-6-quinazolinyl)sulfonyl-methylamino]-N-(1-phenylbutan-2-yl)acetamide]"
5,5.46 µM,Cc1[nH]c2ccccc2c1SCC(=O)N1CCN(c2ccccc2)CC1 [2-[(2-methyl-1H-indol-3-yl)thio]-1-(4-phenyl-1-piperazinyl)ethanone]
6,21.1 µM,"Cc1ccc(/C=C2/Sc3ccccc3N(CC(=O)NCCCOC(C)C)C2=O)cc1 [2-[(2E)-2-[(4-methylphenyl)methylidene]-3-oxidanylidene-1,4-benzothiazin-4-yl]-N-(3-propan-2-yloxypropyl)ethanamide]"
7,11.9 µM,COc1ccc(S(=O)(=O)N(CCc2ccccc2)CC(=O)O)cc1Cl [2-[(3-chloranyl-4-methoxy-phenyl)sulfonyl-(2-phenylethyl)amino]ethanoic acid]
8,0.717 µM,O=C(NCCOc1ccccc1F)c1ccccc1SCc1ccc(F)cc1 [2-[(4-fluorobenzyl)thio]-N-[2-(2-fluorophenoxy)ethyl]benzamide]
9,1.07 µM,Cc1ccc(NC(=O)c2ccccc2NS(=O)(=O)c2ccc(Cl)s2)cc1 [2-[(5-chloranylthiophen-2-yl)sulfonylamino]-N-(4-methylphenyl)benzamide]
10,233 µM,"N#Cc1c(NC(=O)CSc2nc(N)cc(=O)[nH]2)sc2c1CCCCCC2 [2-[(6-amino-4-oxo-1H-pyrimidin-2-yl)sulfanyl]-N-(3-cyano-4,5,6,7,8,9-hexahydrocycloocta[b]thiophen-2-yl)acetamide]"
11,2.16 µM,CCOC(=O)CNC(=O)C(Cc1ccccc1)NC(=O)OCc1ccccc1 (stereo not drawn) [2-[[1-oxo-3-phenyl-2-(phenylmethoxycarbonylamino)propyl]amino]acetic acid ethyl ester] (Cbz-[ξF]-Gly-OEt)
12,65.1 µM,Cc1ccc(Cn2c(SCC(=O)Nc3cc(C)on3)nc3ccccc3c2=O)cc1 [2-[[4-keto-3-(4-methylbenzyl)quinazolin-2-yl]thio]-N-(5-methylisoxazol-3-yl)acetamide]
13,8.09 µM,"Cc1ccccc1-c1nc(C[S+]([O-])CC(=O)NCc2ccccc2)c(C)o1 (stereo not drawn) [2-[[5-methyl-2-(2-methylphenyl)-1,3-oxazol-4-yl]methylsulfinyl]-N-(phenylmethyl)ethanamide]"
14,110 µM,"Cc1ccccc1-c1nc(CS(=O)(=O)CC(=O)NCc2ccccc2)c(C)o1 [2-[[5-methyl-2-(2-methylphenyl)-1,3-oxazol-4-yl]methylsulfonyl]-N-(phenylmethyl)ethanamide]"
15,24.6 µM,"COc1ccc(-c2cc(CNC(=O)CN(C)Cc3ccccc3)on2)cc1 [2-[benzyl(methyl)amino]-N-[[3-(4-methoxyphenyl)-1,2-oxazol-5-yl]methyl]acetamide]"
16,13.7 µM,CC(=O)NC(C)C(=O)OCC(=O)c1ccc(-c2ccccc2)cc1 (stereo not drawn) [2-acetamidopropanoic acid [2-oxo-2-(4-phenylphenyl)ethyl] ester]

row,EC50,Structure (SMILES)
1,11.9 µM,"N#CC1=C(SCc2ccccc2)N=C(N)C(C#N)C12CCCCC2 (stereo not drawn) [2-azanyl-4-(phenylmethylsulfanyl)-3-azaspiro[5.5]undeca-1,4-diene-1,5-dicarbonitrile]"
2,0.384 µM,CN(Cc1ccccc1)S(=O)(=O)c1ccc(Cl)c(C(=O)NCCc2ccccn2)c1 [2-chloranyl-5-[methyl-(phenylmethyl)sulfamoyl]-N-(2-pyridin-2-ylethyl)benzamide]
3,2.03 µM,"Cc1ccc(-c2csc(NC(=O)CCNC(=O)c3ccccc3Cl)n2)cc1 [2-chloranyl-N-[3-[[4-(4-methylphenyl)-1,3-thiazol-2-yl]amino]-3-oxidanylidene-propyl]benzamide]"
4,7.48 µM,"O=C(NC(=S)Nc1nc(-c2cccc([N+](=O)[O-])c2)cs1)c1ccccc1Cl [2-chloranyl-N-[[4-(3-nitrophenyl)-1,3-thiazol-2-yl]carbamothioyl]benzamide]"
5,4.22 µM,COc1ccccc1C(=O)NC1CCN(C(=S)NCCc2ccccc2)CC1 [2-methoxy-N-[1-(2-phenylethylcarbamothioyl)piperidin-4-yl]benzamide]
6,3.75 µM,Cc1cc([N+](=O)[O-])ccc1NCc1ccccc1 [2-methyl-4-nitro-N-(phenylmethyl)aniline]
7,23.8 µM,"O=C(C1CCN(S(=O)(=O)c2cccc3nsnc23)CC1)N1CCc2ccccc2C1 [2-{[1-(2,1,3-benzothiadiazol-4-ylsulfonyl)piperidin-4-yl]carbonyl}-1,2,3,4-tetrahydroisoquinoline]"
8,3.86 µM,"Cc1noc(/C=C/c2ccco2)c1S(=O)(=O)N1CCC(C(=O)N2CCc3ccccc3C2)CC1 [2-{[1-({5-[(E)-2-(2-furyl)vinyl]-3-methylisoxazol-4-yl}sulfonyl)piperidin-4-yl]carbonyl}-1,2,3,4-tetrahydroisoquinoline]"
9,5.55 µM,"COc1cc(OC)c(C2=NOC(C(=O)N3CCc4ccccc4C3)C2)cc1Cl (stereo not drawn) [2-{[3-(5-chloro-2,4-dimethoxyphenyl)-4,5-dihydro-5-isoxazolyl]carbonyl}-1,2,3,4-tetrahydroisoquinoline]"
10,2650 µM,"O=C(C1CCN(S(=O)(=O)c2cccs2)CC1)N1CCc2ccccc2C1 [3,4-dihydro-1H-isoquinolin-2-yl-(1-thiophen-2-ylsulfonyl-4-piperidinyl)methanone]"
11,9.6 µM,"O=C(C1CCN(c2nnc(-n3cccc3)s2)CC1)N1CCc2ccccc2C1 [3,4-dihydro-1H-isoquinolin-2-yl-[1-(5-pyrrol-1-yl-1,3,4-thiadiazol-2-yl)-4-piperidyl]methanone]"
12,0.541 µM,"CC12CC3(C)CC(C)(C1)CC(C(=O)NC(=S)N1CCCC1)(C2)C3 [3,5,7-trimethyl-N-pyrrolidin-1-ylcarbothioyl-adamantane-1-carboxamide]"
13,8.19 µM,"CCCCCC(=O)Cc1cc(O)cc2c1C(=O)Oc1cc(O)c(C(=O)O)c(CCCCC)c1O2 [3,8-Dihydroxy-11-oxo-1-(2-oxo-heptyl)-6-pentyl-11H-dibenzo[b,e][1,4]dioxepine-7-carboxylic acid]"
14,1.94 µM,"Cc1cc(C(=O)COC(=O)CCc2nc3ccccc3s2)c(C)n1C [3-(1,3-benzothiazol-2-yl)propanoic acid [2-oxo-2-(1,2,5-trimethyl-3-pyrrolyl)ethyl] ester]"
15,432 µM,"Cc1ccccc1OCC(=O)NNC(=O)CCN1C(=O)c2ccccc2C1=O [3-(1,3-dioxo-2-isoindolyl)-N'-[2-(2-methylphenoxy)-1-oxoethyl]propanehydrazide]"
16,2.3 µM,"Cc1ccc(/C=C2\SC(=S)N(c3c(C)n(C)n(-c4ccccc4)c3=O)C2=O)cc1 [3-(1,5-dimethyl-3-oxo-2-phenyl-2,3-dihydro-1H-pyrazol-4-yl)-5-(4-methylbenzylidene)-2-thioxo-1,3-thiazolidin-4-one]"

# Same assay, conditions: inactive by the depositor's call
row,EC50,Structure (SMILES)
1,1.86 µM,"N#Cc1nc(COc2ccccc2F)oc1NCc1ccc(F)cc1 [2-[(2-fluoranylphenoxy)methyl]-5-[(4-fluorophenyl)methylamino]-1,3-oxazole-4-carbonitrile]"
2,25.1 µM,"O=C(CSc1nc2cc(Cl)ccc2s1)Nc1cccc(S(=O)(=O)N2CCOCC2)c1 [2-[(5-chloranyl-1,3-benzothiazol-2-yl)sulfanyl]-N-(3-morpholin-4-ylsulfonylphenyl)ethanamide]"
3,3.13 µM,"N=C1SCC(=O)N1c1ncc(Cc2cccc(Cl)c2)s1 [2-azanylidene-3-[5-[(3-chlorophenyl)methyl]-1,3-thiazol-2-yl]-1,3-thiazolidin-4-one]"
4,6.31 µM,C=CCN(c1ccc(OC)cc1)S(=O)(=O)c1ccc(Cl)c(C(=O)OCC(=O)NC2CC2)c1 [2-chloro-5-[(4-methoxyphenyl)-prop-2-enylsulfamoyl]benzoic acid [2-(cyclopropylamino)-2-oxoethyl] ester]
5,43.7 µM,"c1coc(CNc2nc3nonc3nc2NCc2ccco2)c1 [2-furfuryl-[5-(2-furfurylamino)furazano[3,4-b]pyrazin-6-yl]amine]"
6,61.2 µM,"CC1=C(C(=O)OCCOc2ccccc2)C(c2ccsc2)NC(=O)N1C (stereo not drawn) [2-phenoxyethyl 3,4-dimethyl-2-oxo-6-thiophen-3-yl-1,6-dihydropyrimidine-5-carboxylate]"

# Reference: BindingDB's records for doi:10.7270/Q2M32T6M (Vanderbilt Screening Center for GPCRs, Ion Channels and …, 2009)
